Measurements from patent US20040023924A1, “Use of xyloglucan polymers and oligomers, and derivative compounds, as phytosanitary products and biofertilizers” (priority 2000, published 2004).

Tested on: glutathione-reductase (EC 1.6. 4.2)
Experiment: Elicitation of glutathione-reductase activity in protoplasts
Type: cell-based, Rubus fruticosus L.
Details: for Optimal glutathione reductase elicitation response (100% = non-elicited controls): at the optimal dose
Excerpt: Preparation of Rubus fruticosus L. protoplasts according to Vargas-Rechia et al. (1998). The protoplast yield is of the order of 70 to 85% of the initial number of cells used; the viability of the protoplasts, of the order of 90 to 95%, was checked using Evans blue indicator.
Glutathione-reductase (GR) activity assay according to Jahnke L S et al. (1991):
GSSG (glutathione in oxidized form) is reduced to GSH (glutathione in reduced form) by the enzyme glutathione-reductase (EC 1.6. 4.2); the reaction is coupled with the oxidation of NADPH to NADP in the catalytic cycle (glutathione, glutathione-reductase, NADPH). The glutathione-reductase activity is measured by evaluating the formation of NADP in the medium, which is carried out by monitoring the absorbance reduction at 340 nm.
Test: 4.10^6 protoplasts in 1 ml of Tris-HCl buffer (pH 4.8) are incubated at 10° C., 15° C., 25° C. in the presence of the elicitor (0 to 100 μM): 2′-fucosyl lactose (compound A), xyloglucan XXFGol (compound B). After interaction for 10 minutes, an enzymatic extract is prepared according to Jahnke et al. (1991), and a 16.000 g aliquot of the supernatant (equivalent to 1 μg of proteins) is introduced into the pH 7.8 reaction medium (80 mM K2PO4, 500 μM GSSG, 150 μM NADPH, 200 μM DTPA) for the glutathione-reductase activity assay; the A340 recording is carried out for 1 minute using a Beckman D U 640 spectrophotometer.
Evaluation of the experimental data: The reaction rate is given by ΔA340 min^−1. At least three kinetic curves are plotted per experimental condition and per sample. One point on the graph corresponds to the value of the slope of the regression curve deduced from at least 6 kinetic curves.
The elicitation response is evaluated by measuring the formation of NADP at 340 nm. The 100% reference value corresponds to the NADP content in the controls (non-elicited protoplast suspensions).

Elicitor dose of optimal glutathione reductase elicitation response (10° C.): 25 nM | Optimal glutathione reductase elicitation response (100% = non-elicited controls) (10° C.): 2500% | Elicitor dose of optimal glutathione reductase elicitation response (15° C.): 100 nM | Optimal glutathione reductase elicitation response (100% = non-elicited controls) (15° C.): 780% | Glutathione reductase elicitation response (25° C.): no significant response
SMILES: C[C@@H]1O[C@@H](O[C@H]2[C@H](O[C@H]3[C@H](O)[C@@H](O)[C@H](O)O[C@@H]3CO)O[C@H](CO)[C@H](O)[C@@H]2O)[C@@H](O)[C@H](O)[C@@H]1O [compound A, α-L-Fuc(1→2)β-D-Gal(1→4)β-D-Glc]
